pIC50: −log10 of the molar value. “And” between values parts separate entries of the source, which are not always exact repeats. Identical values can stand only once. Like-named read-outs stand apart in the source and are kept apart here.
What was measured:
[1] = Terminal plasma and brain concentrations after behavioral testing; assay type: in vivo, rat; settings: for Kp: brain and plasma, ratio of concentrations measured following the formalin test; for concentration at 160 min / Terminal plasma concentration: mean; for concentration at 160 min: n = 4; for Terminal plasma concentration: n = 8; for Effective [plasma]: mean terminal plasma concentration at the lowest effective dose in the rat formalin test
[2] = biological target: T1, hNav1.7 (Homo sapiens, UniProt Q15858); experiment: Manual whole cell patch clamp electrophysiology on HEK 293 cells stably expressing hNav1.7; assay type: cell-based
T1 construct: expressed in transfected cells; host or cells: HEK 293
T1 sequence (Q15858 whole entry): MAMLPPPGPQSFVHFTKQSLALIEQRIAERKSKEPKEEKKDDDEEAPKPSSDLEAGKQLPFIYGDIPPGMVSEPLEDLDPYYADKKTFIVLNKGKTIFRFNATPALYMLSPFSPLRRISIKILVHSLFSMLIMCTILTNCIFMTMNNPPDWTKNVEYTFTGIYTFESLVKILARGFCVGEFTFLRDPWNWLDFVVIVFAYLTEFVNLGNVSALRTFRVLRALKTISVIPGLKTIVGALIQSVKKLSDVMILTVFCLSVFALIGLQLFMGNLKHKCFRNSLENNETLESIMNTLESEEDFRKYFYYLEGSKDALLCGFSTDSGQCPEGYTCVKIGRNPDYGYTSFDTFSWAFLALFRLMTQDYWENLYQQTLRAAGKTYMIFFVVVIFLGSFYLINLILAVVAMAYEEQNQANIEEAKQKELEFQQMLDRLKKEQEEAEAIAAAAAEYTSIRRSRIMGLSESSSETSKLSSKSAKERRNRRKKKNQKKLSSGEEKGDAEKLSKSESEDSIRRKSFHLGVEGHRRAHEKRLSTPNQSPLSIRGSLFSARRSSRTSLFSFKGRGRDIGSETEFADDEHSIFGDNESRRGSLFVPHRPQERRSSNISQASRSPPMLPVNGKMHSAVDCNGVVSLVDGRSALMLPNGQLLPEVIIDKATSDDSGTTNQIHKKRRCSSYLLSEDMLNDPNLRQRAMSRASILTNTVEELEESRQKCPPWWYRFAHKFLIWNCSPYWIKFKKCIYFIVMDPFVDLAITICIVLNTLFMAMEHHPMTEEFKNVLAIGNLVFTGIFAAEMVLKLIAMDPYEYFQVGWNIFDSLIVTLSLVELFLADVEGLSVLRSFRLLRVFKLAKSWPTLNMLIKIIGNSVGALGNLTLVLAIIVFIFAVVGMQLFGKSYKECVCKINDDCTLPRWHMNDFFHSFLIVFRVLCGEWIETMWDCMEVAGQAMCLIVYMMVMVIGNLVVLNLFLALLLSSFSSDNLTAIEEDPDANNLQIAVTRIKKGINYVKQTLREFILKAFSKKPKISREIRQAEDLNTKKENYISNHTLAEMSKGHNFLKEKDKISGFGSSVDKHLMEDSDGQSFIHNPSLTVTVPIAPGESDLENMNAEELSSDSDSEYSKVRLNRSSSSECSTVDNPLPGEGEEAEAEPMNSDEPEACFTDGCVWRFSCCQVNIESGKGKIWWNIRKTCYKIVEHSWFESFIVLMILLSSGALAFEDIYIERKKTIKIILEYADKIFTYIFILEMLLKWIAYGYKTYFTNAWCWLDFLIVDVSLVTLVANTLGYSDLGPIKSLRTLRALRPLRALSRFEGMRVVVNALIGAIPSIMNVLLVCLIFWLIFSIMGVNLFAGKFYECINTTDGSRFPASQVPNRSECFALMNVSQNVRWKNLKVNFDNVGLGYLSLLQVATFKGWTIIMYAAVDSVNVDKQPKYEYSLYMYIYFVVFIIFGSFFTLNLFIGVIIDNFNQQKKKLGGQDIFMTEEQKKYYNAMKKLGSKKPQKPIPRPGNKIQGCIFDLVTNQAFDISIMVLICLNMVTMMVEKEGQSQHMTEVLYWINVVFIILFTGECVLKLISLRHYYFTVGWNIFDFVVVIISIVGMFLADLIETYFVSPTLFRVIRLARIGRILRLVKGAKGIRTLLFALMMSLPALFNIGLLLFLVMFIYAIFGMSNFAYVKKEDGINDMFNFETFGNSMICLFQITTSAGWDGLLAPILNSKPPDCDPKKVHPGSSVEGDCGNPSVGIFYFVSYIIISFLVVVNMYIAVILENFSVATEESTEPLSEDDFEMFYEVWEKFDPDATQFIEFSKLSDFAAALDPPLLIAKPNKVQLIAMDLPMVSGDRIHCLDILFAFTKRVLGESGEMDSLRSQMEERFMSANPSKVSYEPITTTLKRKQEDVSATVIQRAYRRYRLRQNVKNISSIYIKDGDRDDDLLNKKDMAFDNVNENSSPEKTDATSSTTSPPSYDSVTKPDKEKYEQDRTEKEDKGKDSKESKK
Description: Except as indicated, recordings to determine potency of aminotriazines on Nav1.7 were made with manual electrophysiology. HEK 293 cells stably expressing hNav1.7 were voltage-clamped using the whole cell patch clamp configuration. Cells were plated onto 35 mm culture dishes 0–24 hours before recording, and tissue culture medium was exchanged for external solution containing (in mM) 140 NaCl, 5 KCl, 2 CaCl2, 1 MgCl2, 10 HEPES, 11 glucose, pH 7.4 with NaOH. Patch pipettes were pulled from borosilicate glass capillaries (1.2 mm outer diameter, World Precision Instruments, Sarasota, FL) with a P-97 pipette puller (Sutter Instruments, Novato, CA) and backfilled with internal solution containing (in mM) 62.5 CsCl, 75 CsF, 2.5 MgCl2, 5 EGTA, 10 HEPES, pH 7.25 with CsOH. Pipette resistances were between 1.5 and 2.0 MΩ. After formation of the whole-cell configuration, cells were lifted off the dish bottom with the patch pipette and positioned directly in front of a microarray of glass tubes (each tube internal diameter ~ 1 mm) with each tube containing continuously flowing control or test solution. A full current-voltage relation was recorded from each cell, and cells with poor space clamp as indicated by discontinuous I-V relation or by prolonged or nonexponential current kinetics were discarded. Solution switching was accomplished by moving the microarray with computer control via an RSC-160 rapid solution exchanger (Bio-Logic, Claix, France). Currents were recorded with an Axopatch 200B patch-clamp amplifier driven by pCLAMP software, filtered (4-pole Bessel) at 5 kHz during acquisition, and digitized at 20 kHz using pClamp9.2. Whole cell capacitance and series resistance were compensated at 0%- 80%, and reported voltages were uncorrected for liquid junction potentials. Recordings were made at room temperature. Concentration-response curves were taken by measuring inward Nav1.7 current every five to six seconds with a 10 ms to 20 ms depolarization to near the peak of the current-voltage relation, before and after steady-state inhibition by a given concentration of aminotriazine. For concentration response curves on partially inactivated channels, holding voltage was set to produce 20% fractional inactivation. […] Occasionally two compound concentrations were tested in parallel without resetting the voltage, if inhibition was rapid and the current level steady. […] Concentration response curves on non-inactivated channels generally were taken with multiple concentrations added in series without washoff of the previous concentration.

[3] = biological target: rat Nav1.7 (Rattus norvegicus, UniProt O08562); experiment: PatchXpress automated electrophysiology on rat Nav1.7; assay type: cell-based; settings: 20%-inactivated rat Nav1.7
rat Nav1.7, sequence (O08562 whole entry): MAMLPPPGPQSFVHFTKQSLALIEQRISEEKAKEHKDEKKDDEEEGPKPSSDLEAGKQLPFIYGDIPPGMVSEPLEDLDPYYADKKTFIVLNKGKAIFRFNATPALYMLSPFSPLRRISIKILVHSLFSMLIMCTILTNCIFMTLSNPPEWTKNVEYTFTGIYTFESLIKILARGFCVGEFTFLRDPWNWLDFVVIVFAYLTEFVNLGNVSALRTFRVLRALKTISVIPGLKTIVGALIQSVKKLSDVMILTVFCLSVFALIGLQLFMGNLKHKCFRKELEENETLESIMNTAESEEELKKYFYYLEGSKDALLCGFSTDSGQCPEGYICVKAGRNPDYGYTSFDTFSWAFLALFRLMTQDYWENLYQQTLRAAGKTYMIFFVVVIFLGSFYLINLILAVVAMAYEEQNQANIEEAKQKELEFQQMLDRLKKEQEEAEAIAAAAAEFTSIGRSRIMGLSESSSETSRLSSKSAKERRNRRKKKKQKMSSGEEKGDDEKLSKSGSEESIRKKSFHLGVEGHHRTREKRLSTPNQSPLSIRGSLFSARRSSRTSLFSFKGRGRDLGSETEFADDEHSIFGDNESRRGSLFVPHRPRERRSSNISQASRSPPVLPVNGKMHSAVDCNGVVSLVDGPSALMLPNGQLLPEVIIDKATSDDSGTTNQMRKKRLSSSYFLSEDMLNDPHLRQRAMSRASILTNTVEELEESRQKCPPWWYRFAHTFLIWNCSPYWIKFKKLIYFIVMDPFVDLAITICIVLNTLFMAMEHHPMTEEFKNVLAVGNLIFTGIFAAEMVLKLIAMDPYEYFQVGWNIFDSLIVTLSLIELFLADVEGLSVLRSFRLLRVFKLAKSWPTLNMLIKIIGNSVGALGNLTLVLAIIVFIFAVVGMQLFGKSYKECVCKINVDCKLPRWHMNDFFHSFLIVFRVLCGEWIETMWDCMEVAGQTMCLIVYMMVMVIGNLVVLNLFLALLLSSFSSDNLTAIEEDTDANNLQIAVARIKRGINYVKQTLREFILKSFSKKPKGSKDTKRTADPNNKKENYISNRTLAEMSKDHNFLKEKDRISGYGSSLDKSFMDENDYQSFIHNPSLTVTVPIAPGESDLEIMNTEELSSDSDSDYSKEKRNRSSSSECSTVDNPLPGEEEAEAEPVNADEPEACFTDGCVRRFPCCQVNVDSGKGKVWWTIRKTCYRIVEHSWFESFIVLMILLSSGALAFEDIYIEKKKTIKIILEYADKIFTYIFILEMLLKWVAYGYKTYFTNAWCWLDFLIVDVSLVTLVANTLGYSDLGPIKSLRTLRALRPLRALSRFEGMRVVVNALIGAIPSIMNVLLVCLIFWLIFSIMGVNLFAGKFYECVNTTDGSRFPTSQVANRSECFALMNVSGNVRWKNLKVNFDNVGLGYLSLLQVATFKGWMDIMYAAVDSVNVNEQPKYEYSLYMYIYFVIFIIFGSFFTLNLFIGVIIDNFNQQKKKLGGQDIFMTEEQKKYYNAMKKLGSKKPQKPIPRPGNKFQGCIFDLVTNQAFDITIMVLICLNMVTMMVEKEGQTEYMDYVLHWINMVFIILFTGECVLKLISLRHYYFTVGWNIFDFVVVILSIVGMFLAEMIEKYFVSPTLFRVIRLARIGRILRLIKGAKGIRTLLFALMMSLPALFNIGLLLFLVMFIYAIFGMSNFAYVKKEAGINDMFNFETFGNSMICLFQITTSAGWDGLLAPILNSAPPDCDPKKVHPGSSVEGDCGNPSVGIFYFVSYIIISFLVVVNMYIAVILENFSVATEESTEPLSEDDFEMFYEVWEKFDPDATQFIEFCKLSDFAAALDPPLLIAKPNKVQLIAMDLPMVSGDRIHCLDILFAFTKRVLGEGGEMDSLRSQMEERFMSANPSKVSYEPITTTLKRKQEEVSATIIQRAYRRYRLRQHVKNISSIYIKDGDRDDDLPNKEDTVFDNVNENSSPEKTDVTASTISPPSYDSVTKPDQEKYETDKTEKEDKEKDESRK

[4] = In vitro plasma protein binding; assay type: in vitro ADME
[5] = tested on: rat formalin model of pain; experiment: Formalin test (formalin-induced flinching); assay type: in vivo; settings: for Decrease in formalin flinching: phase 2 (10 to 40 min), percent of vehicle; for Analgesic efficacy: rat formalin model, significant (p < 0.05) decrease in flinching at a dose without a reduction in open field movement that obviated the result; for Reduction in formalin flinching, result in words: rat formalin test
Description: Formalin-induced flinching was measured using the Automated Nociception Analyzer (ANA) (University Anesthesia Research & Development Group, La Jolla, CA). Rats were habituated to the ANA testing chambers for at least 30 minutes prior to the formalin injection. At test time, each rat was removed from the testing chamber and gently wrapped in a towel. 50 μL of 2.5% formalin solution was injected into the dorsal surface of the left hind paw with a 30 gauge needle. A small metal band was then affixed to the plantar side of the injected paw with one drop of super glue. The animal was then unwrapped from the towel, placed back in the testing chamber, and flinching behavior was scored for 40 minutes by the ANA software. While minimized, non-painful paw movement from the natural activity of an alert animal could be erroneously binned by the automated recording system as a nociceptive behavior. These behaviors are not subtracted from the flinching total. […] Total flinching behavior was used as the endpoint of the assay.

[6] = tested on: naïve rats; experiment: Open field activity (basic movement); assay type: in vivo, rat; settings: formalin-naïve rats
Description: Basic movement was measured using the Photobeam Activity System Open Field (San Diego Instruments, San Diego, CA) equipped with 48 infrared photocell emitters and detectors. Photobeams used to measure vertical movement were positioned 14 cm above the test chamber floor. Each testing chamber was made of Plexiglas (41 x 41 x 36 cm) and was devoid of any bedding. At the beginning of the test session, each animal was placed in a separate testing chamber and the room lights were turned off. Basic movement was measured for 30 minutes.

[7] = IC50 (μM) 20%-inactivated, 20%-inactivated human Nav1.7, holding voltage set to produce 20% fractional inactivation
[8] = non-inactivated human Nav1.7, holding voltage -140 mV or occasionally -120 mV, peak concentration tested 10 μM, read-out: IC50 (μM) Non-inactivated
[9] = 30 mg/kg p.o., listed as compound A
[10] = 60 mg/kg p.o., listed as compound A
[11] = 10 mg/kg p.o., negative value = increase

| SMILES | Kp ([1]; rat) | Effective [plasma] [1] [µM] | IC50 [2, 7] [µM] | IC50 [2, 8] [µM] | pIC50 [3] | fraction unbound [4] | Decrease in formalin flinching ([5]; 10 mg/kg p.o.) | Decrease in formalin flinching ([5]; 30 mg/kg p.o.) | Decrease in formalin flinching ([5]; 60 mg/kg p.o.) [%] | Analgesic efficacy [5] | Decrease in basic movement [6, 11] [%] | Decrease in basic movement ([6]; 30 mg/kg p.o.) | Decrease in basic movement ([6]; 60 mg/kg p.o.) [%] | Reduction in formalin flinching, result in words [5] | also measured |
| --- | --- | --- | --- | --- | --- | --- | --- | --- | --- | --- | --- | --- | --- | --- | --- |
| CC(=O)Nc1cccc(Nc2ncnc(N3CCC(Oc4ccc(Cl)cc4)CC3)n2)c1C [Compound A, N-(3-((4-(4-(4-chlorophenoxy)-1-piperidinyl)-1,3,5-triazin-2-yl)amino)-2-methylphenyl)acetamide] | 0.1 | 3.02 | 0.19 | > 10 | 6.28 | 0.013 | 31.4% and 32% | 66.1% and 66% | 85 | Yes | -4.2 | 13.5% and 14% | 46 |  | concentration at 160 min ([1]; formalin test, 10 mg/kg p.o.): 280 nM; Terminal plasma concentration ([1]; formalin test, 10 mg/kg p.o.): 3.02 µM; concentration at 160 min ([1]; formalin test, 30 mg/kg p.o.): 880 nM; Terminal plasma concentration ([1]; formalin test, 30 mg/kg p.o.): 8.07 µM; Terminal plasma concentration ([1]; formalin test, 60 mg/kg p.o.): 13.5 µM; Terminal plasma concentration ([1]; open field test, 10 mg/kg p.o.): 2.75 µM; Terminal plasma concentration ([1]; open field test, 30 mg/kg p.o.): 5.53 µM; Terminal plasma concentration ([1]; open field test, 60 mg/kg p.o.): 13.0 µM; concentration at 160 min ([1]; rat, brain, po, formalin test, 60 mg/kg p.o.): 1540 nM; Decrease in formalin flinching ([5]; 10 mg/kg p.o., listed as compound A): 32%; Decrease in formalin flinching [5, 9]: 66%; Decrease in formalin flinching [5, 10]: 85% and 84.6%; Decrease in basic movement [6, 9]: 14%; Decrease in basic movement [6, 10]: 46% |
| CC(=O)Nc1cccc(Nc2ncnc(N3CCC(Oc4ccc(Cl)c(C)c4)CC3)n2)c1C [Compound B, N-(3-((4-(4-(4-chloro-3-methylphenoxy)-1-piperidinyl)-1,3,5-triazin-2-yl)amino)-2-methylphenyl)acetamide] |  | 8.75 | 0.5 | > 10 | 5.46 | 0.006 | 17% | 30% | 39 | Yes |  | 5.6% | 19 | statistically significant and plasma concentration-dependent reduction in formalin flinching |  |
| CC(=O)Nc1cccc(Nc2ncnc(N3CC(Oc4ccc(F)cc4)C3)n2)c1C [Compound C, N-(3-((4-(3-(4-fluorophenoxy)-1-azetidinyl)-1,3,5-triazin-2-yl)amino)-2-methylphenyl)acetamide] | 0.03 | 3.68 | 1.3 | > 10 | 5.31 | 0.164 | 35% | 53% |  | Yes | 8.5 | 23% |  | statistically significant and plasma concentration-dependent reduction in formalin flinching | Decrease in formalin flinching ([5]; 3 mg/kg p.o.): 14%; Decrease in basic movement ([6]; 3 mg/kg p.o.): 6.8% |
| CC(=O)Nc1cccc(Nc2ncnc(N3CCC(OCc4ccc(F)c(F)c4)CC3)n2)c1C [Compound D, N-(3-((4-(4-((3,4-difluorobenzyl)oxy)-1-piperidinyl)-1,3,5-triazin-2-yl)amino)-2-methylphenyl)acetamide] | 0.19 | 1.27 | 0.6 | > 10 | 5.77 | 0.067 | 36% | 62% | 83 | Yes |  | 28% | 50 | statistically significant and plasma concentration-dependent reduction in formalin flinching | Increase in basic movement (in parentheses in the column Decrease in basic movement) ([6]; 10 mg/kg p.o., value in parentheses corresponds to a measured increase): (1.4%) |
| CC(=O)Nc1cc(Nc2ncnc(N3CC=C(c4ccc(C#N)cc4)CC3)n2)ccc1F [Compound E, N-(5-((4-(4-(4-cyanophenyl)-3,6-dihydro-1(2H)-pyridinyl)-1,3,5-triazin-2-yl)amino)-2-fluorophenyl)acetamide] | 0.49 | 6.14 | 0.09 | 2.1 | 5.46 | 0.009 | 18% | 62% |  | Yes | 2 | 29% |  | statistically significant and plasma concentration-dependent reduction in formalin flinching | Decrease in formalin flinching ([5]; 100 mg/kg p.o.): 83%; Decrease in basic movement ([6]; 100 mg/kg p.o.): 29% |
| CC(=O)Nc1cccc(Nc2ncnc(N3CCC(Oc4ccc(Cl)c(F)c4)CC3)n2)c1C [Compound G, N-(3-((4-(4-(4-chloro-3-fluorophenoxy)-1-piperidinyl)-1,3,5-triazin-2-yl)amino)-2-methylphenyl)acetamide] | 0.09 |  | 0.3 | 6.6 | 6.10 | 0.006 |  |  |  | No |  |  |  | did not achieve statistically significant reversals in formalin flinching |  |
| CC(=O)Nc1cccc(Nc2ncnc(N3CCC(OCc4ccccc4)CC3)n2)c1 [Compound H, N-(3-((4-(4-(benzyloxy)-1-piperidinyl)-1,3,5-triazin-2-yl)amino)phenyl)acetamide] |  |  |  |  |  |  |  |  |  | No |  |  |  | did not achieve statistically significant reversals in formalin flinching |  |
| CN1C(=O)CN=C(c2ccccc2)c2cc(Cl)ccc21 [Diazepam, diazepam, reference compound] |  |  |  |  |  |  |  |  |  |  |  |  |  |  | Reduction in formalin-induced flinching ([5]; diazepam 10 mg/kg, lowest dose with statistically significant reduction): 22% |
